Literature values, collected in patent US20220202682A1, “INCREASING THE STABILITY OF AGENTS FOR THE TREATMENT OF KERATINOUS MATERIAL” (Henkel AG & Co. KGaA, priority 2019, published 2022).

Conditions: 25° C.

Row | SMILES | solubility in water
1 | O=C([O-])c1c(Cl)c(Cl)c(Cl)c(Cl)c1-c1c2c(Br)cc(=O)c(Br)c-2oc2c(Br)c(O)cc(Br)c12.O=C([O-])c1c(Cl)c(Cl)c(Cl)c(Cl)c1-c1c2c(Br)cc(=O)c(Br)c-2oc2c(Br)c(O)cc(Br)c12.[Na+].[Na+] [Acid Red 92, disodium salt of 3,4,5,6-tetrachloro-2-(1,4,5,8-tetrabromo-6-hydroxy-3-oxoxanthen-9-yl)benzoic acid] | greater than 10 g/L
2 | Nc1cc(S(=O)(=O)[O-])cc2cc(S(=O)(=O)[O-])c(N=Nc3ccccc3)c(O)c12.[Na+].[Na+] [Acid Red 33, disodium salt of 5-amino-4-hydroxy-3-(phenylazo)-naphthalene-2,7-disulphonate] | 2500 µg/mL
3 | O=C([O-])C1=NN(c2ccc(S(=O)(=O)[O-])cc2)C(=O)C1N=Nc1ccc(S(=O)(=O)[O-])cc1.[Na+].[Na+].[Na+] (stereo not shown) [Acid Yellow 23, trisodium salt of 4,5-dihydro-5-oxo-1-(4-sulfophenyl)-4-((4-sulfophenyl)azo)-1H-pyrazole-3-carboxylic acid] | highly soluble
4 | O=S(=O)([O-])c1ccc(N=Nc2c(O)ccc3ccccc23)cc1.[Na+] [Acid Orange 7, sodium salt of 4-[(2-hydroxy-1-naphthyl)azo]benzene sulphonate] | more than 7 g/L
